# Results from article PMC10648349, “Aromatic Diboronic Acids as Effective KPC/AmpC Inhibitors” (Molecules, 2023).
# Experiments:
# [1] = tested on: K. pneumoniae ATCC BAA-1705 KPC-2(+); test: MIC of tested agent alone, microdilution; format: cell-based; details: Klebsiella pneumoniae, ATCCBAA1705; read-out: MIC of agent alone
# How it was run: (§1)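 Broth microdilution checkerboard: β-lactam in seven two-fold dilutions (1–64 mg/L) against tested agent or PBA in three two-fold dilutions (4–16 mg/L). Antibiotic MICs were read at each agent level, with agent-alone MICs run in parallel by microdilution.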
# E. coli 77 CMY-2(+) [2] = test: MIC of tested agent alone, microdilution; format: cell-based; details: Escherichia coli; read-out: MIC of agent alone
# How it was run: as §1
# E. coli 76 KPC-2(+) = test: MIC of tested agent alone, microdilution; format: cell-based; details: Escherichia coli; read-out: MIC of agent alone
# How it was run: as §1
# [3] = tested on: K. pneumoniae 81 KPC-3(+); test: MIC of tested agent alone, microdilution; format: cell-based; details: Klebsiella pneumoniae; read-out: MIC of agent alone
# How it was run: as §1
# [4] = tested on: K. pneumoniae 83 KPC-3(+), CTX-M-3(+); test: MIC of tested agent alone, microdilution; format: cell-based; details: Klebsiella pneumoniae; read-out: MIC of agent alone
# How it was run: as §1
# [5] = tested on: P. aeruginosa MUW 700 AmpC(+); test: screening test of direct antimicrobial activity (STDA), disc-diffusion; format: cell-based; details: Pseudomonas aeruginosa; 0.3 mg per disc; - no zone; read-out: Diameter of inhibition zone around disc with tested agent
# Method: (§2) Prior to combination disc tests, screening tests of direct antimicrobial activity (STDA) of the tested agent against β-lactamase-producing strains were performed by the disc-diffusion method. Discs with 0.3 mg, 0.1 mg, and 0.03 mg of each agent were examined. The highest amount of an agent that caused no effect on bacterial growth was used in further experiments.
# [6] = tested on: K. pneumoniae ATCC 700603 ESBL(+); test: as above; format: cell-based; details: Klebsiella pneumoniae, ATCC700603; 0.3 mg per disc; - no zone; read-out: Diameter of inhibition zone around disc with tested agent
# Method: as §2
# E. coli 77 CMY-2(+) [7] = test: as above; format: cell-based; details: Escherichia coli, - no zone, read-out: Diameter of inhibition zone around disc with tested agent; for zone of inhibition at 300 µg/disc: 0.3 mg per disc
# Method: as §2
# [8] = tested on: K. pneumoniae ATCC BAA 1705 KPC(+); test: as above; format: cell-based; details: Klebsiella pneumoniae, BAA1705; 0.3 mg per disc; - no zone; read-out: Diameter of inhibition zone around disc with tested agent
# Method: as §2
# [9] = tested on: P. aeruginosa MUW 700 cAmpC-positive; test: combination disc test CDT-AmpC; format: cell-based; details: Pseudomonas aeruginosa, read-out: Diameter of inhibition zone, CAZ-30 disc with agent; for zone of inhibition at 100 µg/disc: agent 0.1 mg per disc; for zone of inhibition at 300 µg/disc: agent 0.3 mg per disc
# [10] = tested on: C. guilliermondii IBA 155; test: antifungal activity (disc-diffusion, MIC, MFC); format: cell-based, Candida guilliermondii; details: Meyerozyma guilliermondii, IBA155; for zone of inhibition at 0.4 mg/disc: 0.4 mg per disc, 9 mm disc (fluconazole 0.025 mg, 6 mm disc), - no zone, read-out: Diameter of inhibition zone; for MIC: fluconazole by Etest
# How it was run: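 Diboronic acids (DMSO solutions) at 0.4 mg per disc were used for diffusion testing. Dilution endpoints were MIC, MBC and MFC, per CLSI and EUCAST recommendations.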
# [11] = tested on: K. pneumoniae 81 KPC-3-positive; test: checkerboard microdilution, antibiotic plus tested agent; format: cell-based, Klebsiella pneumoniae
# How it was run: (§3)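 Chequerboard layout: tested agent in three two-fold steps (4–16 mg/L) crossed with seven β-lactam dilutions (1–64 mg/L), meropenem for KPC strains and ceftazidime for the cAmpC strain. FICI from first non-growth wells, off-scale MICs raised one doubling; ≤0.5 counts as synergy, >4 antagonism.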
# [12] = tested on: K. pneumoniae 83 KPC-3-positive, CTX-M-3-positive; test: as above; format: cell-based, Klebsiella pneumoniae
# How it was run: as §3
# [13] = tested on: K. pneumoniae ATCC BAA-1705 KPC-2-positive; test: as above; format: cell-based, Klebsiella pneumoniae
# How it was run: as §3
# [14] = tested on: E. coli 77 CMY-2-positive; test: as above; format: cell-based, Escherichia coli
# How it was run: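 Read-out is the antibiotic MIC with agent present, plus FICI = combined/alone MIC ratios summed for both partners. Meropenem pairs served for carbapenemase strains and ceftazidime pairs for the AmpC strain. Agent or PBA was tested at 4–16 mg/L.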
# [15] = tested on: E. coli 76 KPC-2-positive; test: as above; format: cell-based, Escherichia coli
# How it was run: as §3
smiles,measurement,setting,value
OB(O)c1cc(Br)c(B(O)O)cc1Br [1i],MIC,[1],200 µg/mL
same,MIC,E. coli 77 CMY-2(+) [2],100 µg/mL
same,MIC,E. coli 76 KPC-2(+),100 µg/mL
same,MIC,[3],200 µg/mL
same,MIC,[4],200 µg/mL
same,zone of inhibition at 300 µg/disc,[5],12 mm
same,zone of inhibition at 300 µg/disc,[6],13 mm
same,zone of inhibition at 300 µg/disc,E. coli 77 CMY-2(+) [7],16 mm
same,zone of inhibition at 300 µg/disc,[8],15 mm
same,zone of inhibition at 100 µg/disc,[9],16 mm
same,zone of inhibition at 0.4 mg/disc,[10],34 mm
same,MIC,[10],25 µg/mL
O=Cc1cc(F)ccc1B(O)O [7b],zone of inhibition at 300 µg/disc,[6],13 mm
same,zone of inhibition at 100 µg/disc,E. coli 77 CMY-2(+) [7]; 0.1 mg per disc,12 mm
same,zone of inhibition at 300 µg/disc,E. coli 77 CMY-2(+) [7],14 mm
same,zone of inhibition at 300 µg/disc,[8],14 mm
same,zone of inhibition at 0.4 mg/disc,[10],27 mm
same,MIC,[10],25 µg/mL
OB(O)c1ccc(B(O)O)cc1 [1a],Average FICI with ERT,[11],0.20
same,Average FICI with IMI,[11],0.22
same,Average FICI with MEM,[11],0.24
same,The lowest FICI with ERT,[11],0.08
same,The lowest FICI with IMI,[11],0.15
same,The lowest FICI with MEM,[11],0.08
same,Average FICI with ERT,[12],0.35
same,Average FICI with IMI,[12],0.35
same,Average FICI with MEM,[12],0.39
same,The lowest FICI with ERT,[12],0.26
same,The lowest FICI with IMI,[12],0.26
same,The lowest FICI with MEM,[12],0.15
same,Average FICI with ERT,[13],0.43
same,Average FICI with IMI,[13],0.43
same,Average FICI with MEM,[13],0.30
same,The lowest FICI with ERT,[13],0.27
same,The lowest FICI with IMI,[13],0.27
same,The lowest FICI with MEM,[13],0.15
same,MIC,[1],> 400 µg/mL
same,MIC,E. coli 77 CMY-2(+) [2],> 400 µg/mL
same,MIC,E. coli 76 KPC-2(+),> 400 µg/mL
same,MIC,[3],> 400 µg/mL
same,MIC,[4],> 400 µg/mL
same,Average FICI with ceftazidime,[14],0.30
same,The lowest FICI with ceftazidime,[14],0.15
same,Average FICI with ERT,[15],0.22
same,Average FICI with IMI,[15],0.30
same,Average FICI with MEM,[15],0.31
same,The lowest FICI with ERT,[15],0.15
same,The lowest FICI with IMI,[15],0.15
same,The lowest FICI with MEM,[15],0.15
same,zone of inhibition at 300 µg/disc,[9],23 mm
same,MIC,[10],> 400 µg/mL
OB(O)c1cc(F)cc(B(O)O)c1 [2b],MIC,[1],> 400 µg/mL
same,MIC,E. coli 77 CMY-2(+) [2],400 µg/mL
same,MIC,E. coli 76 KPC-2(+),400 µg/mL
same,MIC,[3],> 400 µg/mL
same,MIC,[4],> 400 µg/mL
same,Average FICI with ceftazidime,[14],0.17
same,The lowest FICI with ceftazidime,[14],0.10
same,zone of inhibition at 300 µg/disc,[5],11 mm
same,zone of inhibition at 300 µg/disc,E. coli 77 CMY-2(+) [7],13 mm
same,zone of inhibition at 100 µg/disc,[9],18 mm
same,MIC,[10],> 400 µg/mL
OB(O)c1cc(F)c(B(O)O)c(F)c1F [1f],MIC,[1],100 µg/mL
same,MIC,E. coli 77 CMY-2(+) [2],100 µg/mL
same,MIC,E. coli 76 KPC-2(+),100 µg/mL
same,MIC,[3],100 µg/mL
same,MIC,[4],100 µg/mL
same,Average FICI with ceftazidime,[14],0.24
same,The lowest FICI with ceftazidime,[14],0.21
same,zone of inhibition at 300 µg/disc,[5],12 mm
same,zone of inhibition at 300 µg/disc,[6],18 mm
same,zone of inhibition at 300 µg/disc,E. coli 77 CMY-2(+) [7],15 mm
same,zone of inhibition at 300 µg/disc,[8],16 mm
same,zone of inhibition at 100 µg/disc,[9],17 mm
same,zone of inhibition at 0.4 mg/disc,[10],29 mm
same,MIC,[10],50 µg/mL
"OB(O)c1ccccc1B(O)O [3a, phenylene-1,2-diboronic acid]",Average FICI with ERT,[11],0.14
same,Average FICI with IMI,[11],0.13
same,Average FICI with MEM,[11],0.10
same,The lowest FICI with ERT,[11],0.07
same,The lowest FICI with IMI,[11],0.10
same,The lowest FICI with MEM,[11],0.07
same,Average FICI with ERT,[12],0.17
same,Average FICI with IMI,[12],0.17
same,Average FICI with MEM,[12],0.13
same,The lowest FICI with ERT,[12],0.10
same,The lowest FICI with IMI,[12],0.10
same,The lowest FICI with MEM,[12],0.06
same,Average FICI with ERT,[13],0.32
same,Average FICI with IMI,[13],0.19
same,Average FICI with MEM,[13],0.32
same,The lowest FICI with ERT,[13],0.17
same,The lowest FICI with IMI,[13],0.15
same,The lowest FICI with MEM,[13],0.17
same,MIC,[1],400 µg/mL
same,MIC,E. coli 77 CMY-2(+) [2],400 µg/mL
same,MIC,E. coli 76 KPC-2(+),400 µg/mL
same,MIC,[3],400 µg/mL
same,MIC,[4],400 µg/mL
same,Average FICI with ceftazidime,[14],0.44
same,The lowest FICI with ceftazidime,[14],0.29
same,Average FICI with ERT,[15],0.23
same,Average FICI with IMI,[15],0.13
same,Average FICI with MEM,[15],0.17
same,The lowest FICI with ERT,[15],0.17
same,The lowest FICI with IMI,[15],0.10
same,The lowest FICI with MEM,[15],0.10
same,zone of inhibition at 300 µg/disc,[9],22 mm
same,MIC,[10],> 400 µg/mL
OB(O)c1cc(B(O)O)c(F)cc1F [2c],MIC,[1],400 µg/mL
same,MIC,E. coli 77 CMY-2(+) [2],200 µg/mL
same,MIC,E. coli 76 KPC-2(+),200 µg/mL
same,MIC,[3],200 µg/mL
same,MIC,[4],200 µg/mL
same,Average FICI with ceftazidime,[14],0.21
same,The lowest FICI with ceftazidime,[14],0.17
same,zone of inhibition at 300 µg/disc,[5],11 mm
same,zone of inhibition at 300 µg/disc,[6],13 mm
same,zone of inhibition at 300 µg/disc,E. coli 77 CMY-2(+) [7],15 mm
same,zone of inhibition at 300 µg/disc,[8],14 mm
same,zone of inhibition at 100 µg/disc,[9],20 mm
same,MIC,[10],> 400 µg/mL
OB(O)c1ccc(B(O)O)c(F)c1F [1c],MIC,[1],200 µg/mL
same,MIC,E. coli 77 CMY-2(+) [2],200 µg/mL
same,MIC,E. coli 76 KPC-2(+),200 µg/mL
same,MIC,[3],200 µg/mL
same,MIC,[4],200 µg/mL
same,Average FICI with ceftazidime,[14],0.19
same,The lowest FICI with ceftazidime,[14],0.14
same,zone of inhibition at 300 µg/disc,[5],13 mm
same,zone of inhibition at 300 µg/disc,[6],14 mm
same,zone of inhibition at 300 µg/disc,E. coli 77 CMY-2(+) [7],17 mm
same,zone of inhibition at 300 µg/disc,[8],12 mm
same,zone of inhibition at 100 µg/disc,[9],18 mm
same,MIC,[10],> 400 µg/mL
OB(O)c1cc(F)c(F)c(B(O)O)c1 [2d],MIC,[1],400 µg/mL
same,MIC,E. coli 77 CMY-2(+) [2],200 µg/mL
same,MIC,E. coli 76 KPC-2(+),200 µg/mL
same,MIC,[3],400 µg/mL
same,MIC,[4],400 µg/mL
same,Average FICI with ceftazidime,[14],0.19
same,The lowest FICI with ceftazidime,[14],0.14
same,zone of inhibition at 300 µg/disc,[5],12 mm
same,zone of inhibition at 300 µg/disc,[6],11 mm
same,zone of inhibition at 300 µg/disc,E. coli 77 CMY-2(+) [7],15 mm
same,zone of inhibition at 300 µg/disc,[8],11 mm
same,zone of inhibition at 100 µg/disc,[9],18 mm
same,MIC,[10],400 µg/mL
